{"source": "paper PMC7948737", "about": "“Structures and mechanism of human glycosyltransferase β1,3-N-acetylglucosaminyltransferase 2 (B3GNT2), an important player in immune homeostasis” (The Journal of Biological Chemistry, 2020)", "molecules": {"B1": {"name": "human B3GNT2 luminal domain (Ser31–Cys397) (domain or fragment, UniProt Q9NY97 31-397, looked up)", "chain": "SSQEKNGKGEVIIPKEKFWKISTPPEAYWNREQEKLNRQYNPILSMLTNQTGEAGRLSNISHLNYCEPDLRVTSVVTGFNNLPDRFKDFLLYLRCRNYSLLIDQPDKCAKKPFLLLAIKSLTPHFARRQAIRESWGQESNAGNQTVVRVFLLGQTPPEDNHPDLSDMLKFESEKHQDILMWNYRDTFFNLSLKEVLFLRWVSTSCPDTEFVFKGDDDVFVNTHHILNYLNSLSKTKAKDLFIGDVIHNAGPHRDKKLKYYIPEVVYSGLYPPYAGGGGFLYSGHLALRLYHITDQVHLYPIDDVYTGMCLQKLGLVPEKHKGFRTFDIEEKNKNNICSYVDLMLVHSRKPQEMIDIWSQLQSAHLKC", "modifications": "N-glycans assigned at Asn127, Asn173 and Asn219", "notes": "human B3GNT2 (β-1,3-N-acetylglucosaminyltransferase 2), UniProt Q9NY97, luminal domain, residues Ser31–Cys397; Expressed with an N-terminal gp64 secretion signal peptide; 8×His tag cleaved by TEV protease; Used for the iodide derivative structure (SAD phasing, 2.50 Å); also called B3GNT2 Ser31-Cys397; iodide derivative; source: sf9 cells (baculovirus), secreted into medium, purified (Ni-NTA, size …)"}, "B2": {"name": "human B3GNT2 luminal domain (Lys45–Cys397) (domain or fragment, UniProt Q9NY97 45-397, looked up)", "chain": "KEKFWKISTPPEAYWNREQEKLNRQYNPILSMLTNQTGEAGRLSNISHLNYCEPDLRVTSVVTGFNNLPDRFKDFLLYLRCRNYSLLIDQPDKCAKKPFLLLAIKSLTPHFARRQAIRESWGQESNAGNQTVVRVFLLGQTPPEDNHPDLSDMLKFESEKHQDILMWNYRDTFFNLSLKEVLFLRWVSTSCPDTEFVFKGDDDVFVNTHHILNYLNSLSKTKAKDLFIGDVIHNAGPHRDKKLKYYIPEVVYSGLYPPYAGGGGFLYSGHLALRLYHITDQVHLYPIDDVYTGMCLQKLGLVPEKHKGFRTFDIEEKNKNNICSYVDLMLVHSRKPQEMIDIWSQLQSAHLKC", "modifications": "N-glycans assigned at Asn127, Asn173 and Asn219", "notes": "human B3GNT2 (β-1,3-N-acetylglucosaminyltransferase 2), UniProt Q9NY97, luminal domain, residues Lys45–Cys397; Expressed with an N-terminal gp64 secretion signal peptide; 8×His tag cleaved by TEV protease; Used for all structures except the iodide derivative; also called B3GNT2 Lys45-Cys397; B3GNT2_apo; source: sf9 cells (baculovirus), secreted into medium, purified (Ni-NTA, size exclusion …)"}}, "key": {"[1]": {"target": "T1, β1,3-N-acetylglucosaminyltransferase 2 (B3GNT2) (Homo sapiens, UniProt Q9NY97)", "T1 construct": "luminal domain, Lys45-Cys397 (crystal)", "T1 sequence (Q9NY97 45-397)": "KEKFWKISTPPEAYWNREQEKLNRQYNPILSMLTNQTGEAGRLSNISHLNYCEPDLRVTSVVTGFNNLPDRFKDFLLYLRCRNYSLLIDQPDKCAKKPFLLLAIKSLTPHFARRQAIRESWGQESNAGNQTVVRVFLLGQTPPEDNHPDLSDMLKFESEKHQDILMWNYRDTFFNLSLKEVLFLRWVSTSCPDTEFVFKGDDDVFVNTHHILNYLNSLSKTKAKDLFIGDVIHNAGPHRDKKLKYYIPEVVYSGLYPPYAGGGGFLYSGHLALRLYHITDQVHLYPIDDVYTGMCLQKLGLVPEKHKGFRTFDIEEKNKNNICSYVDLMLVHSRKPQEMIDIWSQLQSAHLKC", "test": "crystal structure ([…] Å, soak) and SPR steady-state affinity", "type": "binding"}, "[2]": {"target": "human B3GNT2 luminal domain (construct of the analytical size exclusion chromatography, limits not told) (human)", "test": "SEC; analytical size exclusion chromatography, Superdex 200 10/300, 20 mM Hepes-NaOH pH 7.5 with 150 mM NaCl (buffer C) or 250 mM NaCl, 50 mM imidazole, 1 mM MgCl2, 0.5 mM DTT (buffer D); Bio-Rad molecular weight standards"}, "[3]": {"target": "T2, β1,3-N-acetylglucosaminyltransferase 2 (B3GNT2) (Homo sapiens, UniProt Q9NY97)", "T2 construct": "luminal domain, Lys45-Cys397 (crystal); Lys29-Cys397 (kinetics)", "T2 sequence (Q9NY97 29-397)": "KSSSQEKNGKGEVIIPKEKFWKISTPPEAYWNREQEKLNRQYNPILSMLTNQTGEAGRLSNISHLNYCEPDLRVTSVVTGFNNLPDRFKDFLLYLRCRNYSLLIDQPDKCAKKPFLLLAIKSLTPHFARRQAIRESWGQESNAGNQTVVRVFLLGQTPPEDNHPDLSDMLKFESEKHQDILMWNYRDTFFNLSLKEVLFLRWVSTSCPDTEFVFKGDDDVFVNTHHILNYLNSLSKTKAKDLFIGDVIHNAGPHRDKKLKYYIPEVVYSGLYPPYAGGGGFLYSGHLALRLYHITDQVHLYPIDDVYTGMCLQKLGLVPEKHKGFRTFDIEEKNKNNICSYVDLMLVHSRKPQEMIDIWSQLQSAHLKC", "test": "crystal structure ([…] Å, soak); binary-complex dissociation constant from UDP-Glo kinetics", "type": "biochemical"}, "[4]": {"target": "T1, β1,3-N-acetylglucosaminyltransferase 2 (B3GNT2)", "test": "crystal structure ([…] Å) and SPR steady-state affinity", "type": "binding"}, "[5]": {"target": "the molecule itself", "test": "crystal structure; sitting/hanging-drop vapor diffusion at 4 °C, 24% PEG1500, 20% glycerol; apo, soaked or co-crystallised with UDP, UDP-GlcNAc, LacNAc; dimer related by crystallographic symmetry"}}, "data": [{"molecule": "CC(=O)N[C@H]1[C@@H](OP(=O)(O)OP(=O)(O)OC[C@H]2O[C@@H](n3ccc(=O)[nH]c3=O)[C@H](O)[C@@H]2O)O[C@H](CO)[C@@H](O)[C@@H]1O", "note": "[UDP-GlcNAc]", "values": [{"measurement": "Kd", "setting": "[1]", "value": "~140", "unit": "µM"}]}, {"molecule": "human B3GNT2 luminal domain (construct of the analytical size exclusion chromatography, limits not told) (domain or fragment)", "values": [{"measurement": "stoichiometry N", "setting": "[2]", "value": 2}]}, {"molecule": "CC(=O)N[C@H]1C(O)O[C@H](CO)[C@@H](O[C@@H]2O[C@H](CO)[C@H](O)[C@H](O)[C@H]2O)[C@@H]1O", "note": "(stereo partly drawn) [LacNAc]", "values": [{"measurement": "Kd", "setting": "[3]", "value": "8990 ± 1750", "unit": "µM"}]}, {"molecule": "O=c1ccn([C@@H]2O[C@H](COP(=O)(O)OP(=O)(O)O)[C@@H](O)[C@H]2O)c(=O)[nH]1", "note": "[UDP]", "values": [{"measurement": "Kd", "setting": "[4]", "value": "~260", "unit": "µM"}]}, {"molecule": "B1", "values": [{"measurement": "binding result", "setting": "[5]", "value": "binds"}]}, {"molecule": "B2", "values": [{"measurement": "binding result", "setting": "[5]", "value": "binds"}]}]}
